# Source: US9856242B2, “5-fluoro-N-(pyridin-2-yl)pyridin-2-amine derivatives containing a sulfone group” (Bayer Pharma Aktiengesellschaft, priority 2014, dated 2018)
# Key:
# CDK2/CycE = target: T1, CDK2/CycE (Homo sapiens, UniProt P24941); assay: CDK2/CycE kinase assay (Method 2a, TR-FRET, 10 μM ATP); assay type: biochemical
# T1 construct: GST; purchased ProQinase GmbH (Freiburg, Germany); host or cells: insect cells (Sf9)
# Excerpt: 2a. CDK2/CycE Kinase Assay:
# CDK2/CycE-inhibitory activity of compounds of the present invention was quantified employing the CDK2/CycE TR-FRET assay as described in the following paragraphs:
# Recombinant fusion proteins of GST and human CDK2 and of GST and human CycE, expressed in insect cells (Sf9) and purified by Glutathion-Sepharose affinity chromatography, were purchased from ProQinase GmbH (Freiburg, Germany). As substrate for the kinase reaction biotinylated peptide biotin-Ttds-YISPLKSPYKISEG (C-terminus in amid form) was used which can be purchased e.g. form the company JERINI Peptide Technologies (Berlin, Germany).
# (§1) For the assay 50 n1 of a 100 fold concentrated solution of the test compound in DMSO was pipetted into a black low volume 384 well microtiter plate (Greiner Bio-One, Frickenhausen, Germany), 2 μl of a solution of CDK2/CycE in aqueous assay buffer [50 mM Tris/HCl pH 8.0, 10 mM MgCl2, 1.0 mM dithiothreitol, 0.1 mM sodium ortho-vanadate, 0.01% (v/v) Nonidet-P40 (Sigma)] were added and the mixture was incubated for 15 min at 22° C. to allow pre-binding of the test compounds to the enzyme before the start of the kinase reaction. Then the kinase reaction was started by the addition of 3 μl of a solution of adenosine-tri-phosphate (ATP, 16.7 μM=>final conc. in the 5 μl assay volume is 10 μM) and substrate (1.25 μM=>final conc. in the 5 μl assay volume is 0.75 μM) in assay buffer and the resulting mixture was incubated for a reaction time of 25 min at 22° C. The concentration of CDK2/CycE was adjusted depending of the activity of the enzyme lot and was chosen appropriate to have the assay in the linear range, typical concentrations were in the range of 130 ng/mL. The reaction was stopped by the addition of 5 μl of a solution of TR-FRET detection reagents (0.2 μM streptavidine-XL665 [Cisbio Bioassays, Codolet, France] and 1 nM anti-RB(pSer807/pSer811)-antibody from BD Pharmingen [#558389] and 1.2 nM LANCE EU-W1024 labeled anti-mouse IgG antibody [Perkin-Elmer, product no. AD0077]) in an aqueous EDTA-solution (100 mM EDTA, 0.2% (w/v) bovine serum albumin in 100 mM HEPES/NaOH pH 7.0).
# (§2) The resulting mixture was incubated 1 h at 22° C. to allow the formation of complex between the phosphorylated biotinylated peptide and the detection reagents. Subsequently the amount of phosphorylated substrate was evaluated by measurement of the resonance energy transfer from the Eu-chelate to the streptavidine-XL. Therefore, the fluorescence emissions at 620 nm and 665 nm after excitation at 350 nm was measured in a TR-FRET reader, e.g. a Rubystar (BMG Labtechnologies, Offenburg, Germany) or a Viewlux (Perkin-Elmer). The ratio of the emissions at 665 nm and at […] was taken as the measure for the amount of phosphorylated substrate. The data were normalised (enzyme reaction without inhibitor=0% inhibition, all other assay components but no enzyme=100% inhibition).
# CDK9/CycT1 = target: T2, CDK9/CycT1 (Homo sapiens, UniProt P50750); assay: CDK9/CycT1 high ATP kinase assay (Method 1b, TR-FRET, 2 mM ATP); assay type: biochemical; conditions: for IC50: Method 1b, 2 mM ATP; for Selectivity high ATP CDK9/high ATP CDK2: according to Methods 1b and 2b (ratio of high ATP CDK2 IC50 to high ATP CDK9 IC50)
# T2 construct: Recombinant full-length His-tagged human CDK9 and CycT1; His; purchased Invitrogen PV4131; host or cells: insect cells
# T2 sequence (P50750 whole entry): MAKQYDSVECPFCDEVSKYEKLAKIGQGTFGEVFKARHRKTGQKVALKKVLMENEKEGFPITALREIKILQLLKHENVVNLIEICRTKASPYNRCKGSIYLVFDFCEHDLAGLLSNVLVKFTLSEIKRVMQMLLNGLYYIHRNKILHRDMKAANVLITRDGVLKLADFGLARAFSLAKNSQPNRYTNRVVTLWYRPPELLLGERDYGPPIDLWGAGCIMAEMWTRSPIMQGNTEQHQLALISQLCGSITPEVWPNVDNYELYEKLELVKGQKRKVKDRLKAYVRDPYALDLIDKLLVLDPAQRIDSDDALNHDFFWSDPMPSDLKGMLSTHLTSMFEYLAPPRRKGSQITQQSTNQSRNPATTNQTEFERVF
# T2 sequence (O60563 whole entry partner): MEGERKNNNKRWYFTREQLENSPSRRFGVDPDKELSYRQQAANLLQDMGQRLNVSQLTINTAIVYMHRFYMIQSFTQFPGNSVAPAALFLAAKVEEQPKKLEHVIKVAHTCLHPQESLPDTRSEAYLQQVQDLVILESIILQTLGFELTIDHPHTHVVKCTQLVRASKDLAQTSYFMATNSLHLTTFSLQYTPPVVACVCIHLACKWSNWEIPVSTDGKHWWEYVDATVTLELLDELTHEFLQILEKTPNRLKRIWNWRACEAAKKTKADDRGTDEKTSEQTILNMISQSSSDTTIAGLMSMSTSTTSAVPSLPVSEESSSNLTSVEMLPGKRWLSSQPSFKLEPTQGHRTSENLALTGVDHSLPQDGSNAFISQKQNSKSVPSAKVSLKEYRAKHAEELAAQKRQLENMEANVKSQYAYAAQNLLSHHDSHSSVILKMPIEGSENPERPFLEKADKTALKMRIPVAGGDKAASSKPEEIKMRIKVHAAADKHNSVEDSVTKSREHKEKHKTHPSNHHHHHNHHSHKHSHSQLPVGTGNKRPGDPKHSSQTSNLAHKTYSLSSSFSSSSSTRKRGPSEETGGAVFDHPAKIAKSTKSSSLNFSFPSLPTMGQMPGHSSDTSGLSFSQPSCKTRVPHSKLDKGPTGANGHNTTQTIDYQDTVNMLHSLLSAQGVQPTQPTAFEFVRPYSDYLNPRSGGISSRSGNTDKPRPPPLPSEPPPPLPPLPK
# Experimental: 1b. CDK9/CycT1 High ATP Kinase Assay
# CDK9/CycT1-inhibitory activity of compounds of the present invention at a high ATP concentration after preincubation of enzyme and test compounds was quantified employing the CDK9/CycT1 TR-FRET assay as described in the following paragraphs.
# as §1, with “Recombinant full-length His-tagged human CDK9 and CycT1, expressed in insect cells and purified by Ni-NTA affinity chromatography, were purchase from Invitrogen (Cat. No PV4131). As substrate for the kinase reaction biotinylated peptide biotin-Ttds-YISPLKSPYKISEG (C-terminus in amid form) was used which can be purchased e.g. form the company JERINI peptide technologies (Berlin, Germany). For” for “For”, “CDK9/CycT1” for “CDK2/CycE”, “3.3 mM=>final conc. in the 5 μl assay volume is 2 mM) and substrate (1.67” for “16.7”, “1” for “10 μM) and substrate (1.25 μM=>final conc. in the 5 μl assay volume is 0.75”, “0.5 μg/mL.” for “130 ng/mL.”
# as §2, with “HTRF” for “TR-FRET”
IC50 (CDK2/CycE),IC50 (CDK9/CycT1),Selectivity high ATP CDK9/high ATP CDK2 (CDK9/CycT1),SMILES
69 nM,2 nM,–,"CS(=O)(=O)Cc1ccnc(Nc2cc(-c3cccc4ccoc34)c(F)cn2)c1 [Example 5, 4-(1-Benzofuran-7-yl)-5-fluoro-N-{4-[(methylsulfonyl)methyl]pyridin-2-yl}pyridin-2-amine]"
33 nM,4 nM,–,"CS(=O)(=O)Cc1cc(Nc2cc(-c3ccc(F)c4ccoc34)c(F)cn2)nc(C(F)(F)F)c1 [Example 4, 5-Fluoro-4-(4-fluoro-1-benzofuran-7-yl)-N-{4-[(methylsulfonyl)methyl]-6-(trifluoromethyl)pyridin-2-yl}pyridin-2-amine]"
46 nM,0.9 nM,–,"Cc1cc(CS(C)(=O)=O)cc(Nc2cc(-c3ccc(F)c4ccoc34)c(F)cn2)n1 [Example 3, 5-Fluoro-4-(4-fluoro-1-benzofuran-7-yl)-N-{6-methyl-4-[(methylsulfonyl)methyl]pyridin-2-yl}pyridin-2-amine]"
87 nM,2 nM,268,"CS(=O)(=O)Cc1ccnc(Nc2cc(-c3ccc(F)c4ccoc34)c(F)cn2)c1 [Example 1, 5-Fluoro-4-(4-fluoro-1-benzofuran-7-yl)-N-{4-[(methylsulfonyl)methyl]pyridin-2-yl}pyridin-2-amine]"
71 nM,1 nM,517,"CS(=O)(=O)Cc1cc(F)nc(Nc2cc(-c3ccc(F)c4ccoc34)c(F)cn2)c1 [Example 2, 5-Fluoro-4-(4-fluoro-1-benzofuran-7-yl)-N-{6-fluoro-4-[(methylsulfonyl)methyl]pyridin-2-yl}pyridin-2-amine]"
